{"source": "paper PMC11902257", "about": "“Antiprotozoal Aminosteroids from Pachysandra terminalis” (Molecules, 2025)", "format_in_all_cases": "cell-based", "key": {"[1]": {"tested_on": "Plasmodium falciparum (Pf) NF54 strain", "assay": "in vitro antiplasmodial assay, 3H-hypoxanthine incorporation, erythrocytic stages", "conditions": "for IC50: Plasmodium falciparum, read-out: IC50 Pf (converted); for SI (Pf): Selectivity index IC50(Cytotox)/IC50(Pf), pure compounds", "method": "Plasmodium falciparum (Pf): Tests were performed against erythrocytic stages of the drug-sensitive NF54 strain. The NF54 strain was obtained from F. Hoffmann-La Roche Limited (Basel, Switzerland). The strain NF54 was originally derived from a patient living near Schiphol Airport, Amsterdam, who had never left the Netherlands. The assay was performed using a 3H-hypoxanthine incorporation assay. Serial compound dilutions were prepared with the medium as indicated above and then added in 96-well plates to parasite cultures incubated in the medium previously described, consisting of RPMI 1640 supplemented with 0.5% ALBUMAX® II, 25 mM Hepes, 25 mM NaHCO3 (pH 7.3), 0.36 mM hypoxanthine, and 100 μg/mL neomycin. The plates were incubated in a humidified atmosphere at 37 °C, 4% CO2, 3% O2, and 93% N2. After 48 h, 0.25 μCi of 3H-hypoxanthine was added to each well. Incubation was continued under identical conditions for a further 24 h. The plates were then harvested using a Betaplate™ cell harvester (Wallac, Zurich, Switzerland). The red blood cells were transferred onto a glass fiber filter and washed with distilled H2O. After drying, filters were inserted into a plastic foil with 10 mL of scintillation fluid and counted with a Betaplate™ liquid scintillation counter (Wallac, Zurich, Switzerland). Data were treated according to [44] (see below). The positive control was chloroquine.\n(§1) Bioassay data and statistical methods: In all cases, the readout data were plotted in Microsoft Excel. Half-maximal inhibitory concentrations (IC50 values) were calculated from the sigmoidal dose-response curves by linear regression. Two independent replicates of the assay were performed in all cases, and the results were expressed as arithmetic mean ± deviation from the mean."}, "[2]": {"tested_on": "Trypanosoma brucei rhodesiense (Tbr) STIB900 strain", "assay": "in vitro antitrypanosomal assay, bloodstream forms, resazurin", "conditions": "for SI(Tbr): Selectivity index IC50(Cytotox)/IC50(Tbr); for IC50: Trypanosoma brucei, read-out: IC50 Tbr (converted)", "method": "Trypanosoma brucei rhodesiense (Tbr): The STIB900 strain is a derivative of the STIB704 strain isolated from a patient in Ifakara, Tanzania, in 1982 [43]. The bloodstream forms were cultivated as axenic culture in HMI-9 medium, supplemented with 15% heat-inactivated horse serum. Cultures were maintained at 37 °C in an atmosphere of 5% CO2. Test compounds were dissolved in DMSO (10 mg/mL), and serial drug dilutions of eleven 3-fold dilution steps covering a range from 100 to 0.002 μg/mL were prepared in a 96-well plate. Bloodstream-form of T. b rhodesiense strain STIB900 (2 × 10^3/well) was added into the wells. After 68 h incubation, 10 μL of resazurin solution (12.5 mg resazurin in 100 mL 1xPBS) was added per well, and plates were incubated for an additional 4 h. Subsequently, the plates were read with a Spectramax Gemini EM microplate fluorometer (Molecular Devices, San Jose, CA, USA) using an excitation wavelength of 536 nm and an emission wavelength of 588 nm. Data were treated according to [44] (see below). Melarsoprol was used as a positive control.\nas §1"}, "[3]": {"assay": "cytotoxicity against L-6 rat skeletal myoblasts, resazurin", "method": "Cytotoxicity against L-6 rat skeletal myoblasts: The L6 rat skeletal myoblast cell line used for cytotoxicity tests was obtained from the American Type Culture Collection (ATCC, Manassas, VA, USA) as ATCC-CRL-1458 [50]. The cells were cultivated in RPMI 1640 medium supplemented with 1% L-glutamine (200mM) and 10% fetal bovine serum. Cultures were maintained at 37 °C in an atmosphere of 5% CO2. Assays were performed in 96-well plates, each well containing RPMI 1640 medium supplemented with 1% L-glutamine (200 mM), 10% fetal bovine serum, and 2 × 10^3 L-6 cells/well. Plates were incubated at 37 °C under a 5% CO2 atmosphere for 24 h. Compounds were dissolved in DMSO (10 mg/mL). After 24 h, serial drug dilutions of eleven 3-fold dilution steps covering a range from 100 to 0.002 μg/mL were prepared, and the plates were incubated at 37 °C under 5% CO2 for 70 h. After 70 h incubation, 10 μL of resazurin solution (12.5 mg resazurin in 100 mL 1xPBS) was added per well, and plates were incubated for an additional 2 h. After that, the plates were read with a Spectramax Gemini EM microplate fluorometer (Molecular Devices, San Jose, CA, USA) using an excitation wavelength of 536 nm and an emission wavelength of 588 nm. Data were treated according to [44] (see below). Podophyllotoxin served as a positive control.\nas §1"}, "[4]": {"conditions": "NF54, pure compounds, tested as mono- or bis-trifluoroacetates where marked"}, "[5]": {"conditions": "NF54, values in brackets, calculated with the molecular masses of the corresponding salts"}, "[6]": {"conditions": "pure compounds, tested as mono- or bis-trifluoroacetates where marked"}, "[7]": {"conditions": "values in brackets, calculated with the molecular masses of the corresponding salts"}}, "note": "Values joined by “and” are separate entries in the source; they are usually repeats but may differ in a detail not shown here. Equal entries are not always repeated. Where two headings read alike, the source gives them in different places.", "data": [{"smiles": "C[C@@H]([C@H]1CC[C@H]2[C@@H]3CC[C@H]4[C@@H](O)[C@@H](NC(=O)c5ccccc5)[C@@H](O)C[C@]4(C)[C@H]3CC[C@]12C)N(C)C", "note": "[Compound 18, 2β,3β,4β-Diapachysamine K]", "values": [{"measurement": "IC50", "setting": "[1]; [4]", "result": "47 ± 7", "unit": "µg/mL"}, {"measurement": "IC50", "setting": "[1]; [5]", "result": 80, "unit": "µM"}, {"measurement": "SI (Pf)", "setting": "[1]", "result": 0.4}, {"measurement": "SI(Tbr)", "setting": "[2]; pure compounds", "result": 3}, {"measurement": "IC50", "setting": "[2]; [6]", "result": "5.9 ± 0.4", "unit": "µg/mL"}, {"measurement": "IC50", "setting": "[2]; [7]", "result": 9.9, "unit": "µM"}, {"measurement": "IC50 at 70 h", "setting": "[3]", "result": "17 µg/mL and 28 µM"}]}, {"smiles": "CN[C@@H](C)[C@H]1CC[C@H]2[C@@H]3CC[C@H]4C[C@@H]([N+](C)(C)CCl)CC[C@]4(C)[C@H]3CC[C@]12C", "note": "[Compound 6, N3-chloromethyl-desacyl-epipachysamine A]", "values": [{"measurement": "IC50", "setting": "[1]; [4]", "result": "0.25 ± 0.03", "unit": "µg/mL"}, {"measurement": "IC50", "setting": "[1]; [5]", "result": 0.39, "unit": "µM"}, {"measurement": "SI (Pf)", "setting": "[1]", "result": 346}, {"measurement": "SI(Tbr)", "setting": "[2]; pure compounds", "result": 74}, {"measurement": "IC50", "setting": "[2]; [6]", "result": "1.2 ± 0.4", "unit": "µg/mL"}, {"measurement": "IC50", "setting": "[2]; [7]", "result": 1.9, "unit": "µM"}, {"measurement": "IC50 at 70 h", "setting": "[3]", "result": "87 µg/mL and 136 µM"}]}, {"smiles": "CN[C@@H]1CC[C@]2(C)[C@H]3CC[C@]4(C)[C@@H]([C@H](C)N(C)C)CC[C@H]4[C@@H]3CC[C@@]2(O)[C@@H]1OC(=O)c1ccccc1", "note": "[Compound 17, 5α-Hydroxy-3α,4α-diapachysanaximine A]", "values": [{"measurement": "IC50", "setting": "[1]; [4]", "result": "1.6 ± 0.4", "unit": "µg/mL"}, {"measurement": "IC50", "setting": "[1]; [5]", "result": 2.3, "unit": "µM"}, {"measurement": "SI (Pf)", "setting": "[1]", "result": 7}, {"measurement": "SI(Tbr)", "setting": "[2]; pure compounds", "result": 3}, {"measurement": "IC50", "setting": "[2]; [6]", "result": "3 ± 2", "unit": "µg/mL"}, {"measurement": "IC50", "setting": "[2]; [7]", "result": 5, "unit": "µM"}, {"measurement": "IC50 at 70 h", "setting": "[3]", "result": "12 µg/mL and 16 µM"}]}, {"smiles": "C[C@@H]([C@H]1CC[C@H]2[C@@H]3CC=C4C[C@@H](N(C)C)CC[C@]4(C)[C@H]3CC[C@]12C)N(C)C", "note": "[Compound 13, Sarcodinine]", "values": [{"measurement": "IC50", "setting": "[1]; [4]", "result": "4.6 ± 0.7", "unit": "µg/mL"}, {"measurement": "IC50", "setting": "[1]; [5]", "result": 7.7, "unit": "µM"}, {"measurement": "SI (Pf)", "setting": "[1]", "result": 2}, {"measurement": "SI(Tbr)", "setting": "[2]; pure compounds", "result": 4}, {"measurement": "IC50", "setting": "[2]; [6]", "result": "2.6 ± 0.4", "unit": "µg/mL"}, {"measurement": "IC50", "setting": "[2]; [7]", "result": 4.3, "unit": "µM"}, {"measurement": "IC50 at 70 h", "setting": "[3]", "result": "11 µg/mL and 18 µM"}]}]}
